Source: ChEMBL document CHEMBL1275364, “Diaryldiamines with dual inhibition of the histamine H(3) receptor and the norepinephrine transporter and the efficacy of 4-(3-(methylamino)-1-phenylpropyl)-6-(2-(pyrrolidin-1-yl)ethoxy)naphthalen-1-ol in pain” (J Med Chem, 2010)
Converted amounts (≈) assume the structure as drawn. Values belong to the compound of their own block, whether it stands above or below them.

What was measured:
[1] = target: Sodium-dependent serotonin transporter (Homo sapiens, UniProt P31645)
Histamine H3 receptor [2] = target: T1, Histamine H3 receptor (Homo sapiens, UniProt Q9Y5N1); experiment: Antagonist activity at human recombinant histamine H3 receptor expressed in HEK cells assessed as inhibition of RAMH-induced [35S]GTPgammaS binding by liquid scintillation counting; format: functional, cell-based; details: HEK293
Histamine H3 receptor [3] = target: Histamine H3 receptor (Rattus norvegicus, UniProt Q9QYN8)
Description: Displacement of [3H]N-R-methylhistamine from rat H3 receptor

Transporter = Transporter (Rattus norvegicus, UniProt Q63380); experiment: biochemical
Description: Displacement of [3H]nisoxetine from rat NET in rat cerebral cortex

Histamine H3 receptor [4] = target: T1, Histamine H3 receptor; experiment: biochemical
Description: Displacement of [3H]N-R-methylhistamine from human H3 receptor isolated from C6 cells

[5] = Cmax in Sprague-Dawley rat at 1 mg/kg, ip; format: ADME, organism-based; design: dose 1 mg/kg, route intraperitoneal; details: in vivo
[6] = Tmax in Sprague-Dawley rat at 1 mg/kg, ip; format: ADME, organism-based; design: dose 1 mg/kg, route intraperitoneal; details: in vivo
[7] = Bioavailability in Sprague-Dawley rat at 1 mg/kg, ip and iv; format: ADME, organism-based; details: in vivo
[8] = Volume of distribution in Sprague-Dawley rat at 1 mg/kg, iv; format: ADME, organism-based; design: dose 1 mg/kg, route intravenous; details: in vivo
[9] = Clearance in Sprague-Dawley rat at 1 mg/kg, iv; format: ADME, organism-based; design: dose 1 mg/kg, route intravenous; details: in vivo
[10] = Half life in Sprague-Dawley rat at 1 mg/kg, iv; format: ADME, organism-based; design: dose 1 mg/kg, route intravenous; details: in vivo
[11] = Plasma protein binding in Sprague-Dawley rat at 1 mg/kg, iv; format: ADME, organism-based; design: dose 1 mg/kg, route intravenous; details: read-out: PPB (converted)
[12] = Plasma protein binding in Sprague-Dawley rat assessed as unbound fraction at 1 mg/kg, iv; format: ADME, organism-based; design: dose 1 mg/kg, route intravenous
Rattus norvegicus [13] = experiment: Antiinflammatory activity in Sprague-Dawley rat osteoarthritis model assessed as efficacy at 3 mg/kg, ip after 20 days; format: functional; details: route intraperitoneal
Rattus norvegicus [14] = experiment: Antiinflammatory activity in Sprague-Dawley rat osteoarthritis model assessed as efficacy at 10 mg/kg, ip after 20 days; format: functional; details: route intraperitoneal
Rattus norvegicus [15] = experiment: Antiinflammatory activity in ip dosed Sprague-Dawley rat osteoarthritis model assessed as efficacy measured after 20 days; format: functional; details: 480 h
[16] = Plasma concentration in Sprague-Dawley rat osteoarthritis model at 1 mg/kg, ip after 45 mins; format: ADME, organism-based; design: dose 1 mg/kg, route intraperitoneal
[17] = Plasma concentration in Sprague-Dawley rat osteoarthritis model at 3 mg/kg, ip after 45 mins; format: ADME, organism-based; design: dose 3 mg/kg, route intraperitoneal
[18] = Plasma concentration in Sprague-Dawley rat osteoarthritis model at 10 mg/kg, ip after 45 mins; format: ADME, organism-based; design: dose 10 mg/kg, route intraperitoneal
Rattus norvegicus [19] = experiment: Ex vivo receptor occupancy of histamine H3 receptor in Sprague-Dawley rat osteoarthritis model at 1 mg/kg, ip; format: functional; details: route intraperitoneal
Rattus norvegicus [20] = experiment: Ex vivo receptor occupancy of histamine H3 receptor in Sprague-Dawley rat osteoarthritis model at 3 mg/kg, ip; format: functional; details: route intraperitoneal
Rattus norvegicus [21] = experiment: Ex vivo receptor occupancy of histamine H3 receptor in Sprague-Dawley rat osteoarthritis model at 10 mg/kg, ip; format: functional; details: route intraperitoneal
Rattus norvegicus [22] = experiment: Ex vivo receptor occupancy of NET in Sprague-Dawley rat osteoarthritis model at 1 mg/kg, ip; format: functional; details: route intraperitoneal
Rattus norvegicus [23] = experiment: Ex vivo receptor occupancy of NET in Sprague-Dawley rat osteoarthritis model at 3 mg/kg, ip; format: functional; details: route intraperitoneal
Rattus norvegicus [24] = experiment: Ex vivo receptor occupancy of NET in Sprague-Dawley rat osteoarthritis model at 10 mg/kg, ip; format: functional; details: route intraperitoneal
Rattus norvegicus [25] = experiment: Antiinflammatory activity in ip dosed Sprague-Dawley rat osteoarthritis model assessed as efficacy measured at 370 nM plasma concentration after 20 days; format: functional

Histamine H3 receptor (Rattus norvegicus, UniProt Q9QYN8), sequence (Q9QYN8 whole entry): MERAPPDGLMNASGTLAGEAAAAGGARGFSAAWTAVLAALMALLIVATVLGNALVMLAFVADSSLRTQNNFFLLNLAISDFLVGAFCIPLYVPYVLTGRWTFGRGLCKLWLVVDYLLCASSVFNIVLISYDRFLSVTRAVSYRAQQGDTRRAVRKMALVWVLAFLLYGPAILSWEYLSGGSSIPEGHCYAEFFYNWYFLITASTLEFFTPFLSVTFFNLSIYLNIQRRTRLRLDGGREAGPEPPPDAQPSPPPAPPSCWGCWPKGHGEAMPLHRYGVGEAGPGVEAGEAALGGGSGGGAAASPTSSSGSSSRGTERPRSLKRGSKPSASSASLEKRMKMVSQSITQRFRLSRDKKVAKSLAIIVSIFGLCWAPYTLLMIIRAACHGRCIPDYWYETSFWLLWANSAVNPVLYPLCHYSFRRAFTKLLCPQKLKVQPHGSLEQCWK
T1 sequence (Q9Y5N1 whole entry): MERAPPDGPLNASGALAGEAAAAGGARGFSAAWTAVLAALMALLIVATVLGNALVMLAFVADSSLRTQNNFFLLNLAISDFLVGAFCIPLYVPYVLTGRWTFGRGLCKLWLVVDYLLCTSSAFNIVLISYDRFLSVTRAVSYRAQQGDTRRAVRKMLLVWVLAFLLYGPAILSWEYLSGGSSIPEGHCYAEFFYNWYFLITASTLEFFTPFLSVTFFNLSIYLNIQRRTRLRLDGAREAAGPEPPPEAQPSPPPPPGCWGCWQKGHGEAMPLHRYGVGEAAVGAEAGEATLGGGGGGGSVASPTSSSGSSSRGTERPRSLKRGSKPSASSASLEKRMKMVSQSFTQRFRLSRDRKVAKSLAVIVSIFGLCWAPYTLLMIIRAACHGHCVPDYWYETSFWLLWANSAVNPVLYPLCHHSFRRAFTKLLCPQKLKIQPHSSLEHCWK
Transporter, sequence (Q63380 whole entry): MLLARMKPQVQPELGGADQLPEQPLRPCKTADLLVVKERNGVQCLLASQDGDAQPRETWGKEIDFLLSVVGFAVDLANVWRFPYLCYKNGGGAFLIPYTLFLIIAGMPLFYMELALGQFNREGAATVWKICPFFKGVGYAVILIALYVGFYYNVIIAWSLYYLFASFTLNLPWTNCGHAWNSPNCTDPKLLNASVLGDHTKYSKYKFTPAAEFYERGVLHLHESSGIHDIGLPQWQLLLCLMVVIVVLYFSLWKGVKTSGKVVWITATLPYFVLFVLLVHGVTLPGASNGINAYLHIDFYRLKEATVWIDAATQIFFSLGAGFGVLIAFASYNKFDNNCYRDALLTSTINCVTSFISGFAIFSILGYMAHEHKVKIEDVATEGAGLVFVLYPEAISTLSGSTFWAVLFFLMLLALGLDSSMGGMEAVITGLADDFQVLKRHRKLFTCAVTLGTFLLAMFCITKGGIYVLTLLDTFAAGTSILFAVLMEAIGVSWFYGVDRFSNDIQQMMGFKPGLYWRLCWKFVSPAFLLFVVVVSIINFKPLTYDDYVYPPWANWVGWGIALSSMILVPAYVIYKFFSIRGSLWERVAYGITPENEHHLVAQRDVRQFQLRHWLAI
Sodium-dependent serotonin transporter, sequence (P31645 whole entry): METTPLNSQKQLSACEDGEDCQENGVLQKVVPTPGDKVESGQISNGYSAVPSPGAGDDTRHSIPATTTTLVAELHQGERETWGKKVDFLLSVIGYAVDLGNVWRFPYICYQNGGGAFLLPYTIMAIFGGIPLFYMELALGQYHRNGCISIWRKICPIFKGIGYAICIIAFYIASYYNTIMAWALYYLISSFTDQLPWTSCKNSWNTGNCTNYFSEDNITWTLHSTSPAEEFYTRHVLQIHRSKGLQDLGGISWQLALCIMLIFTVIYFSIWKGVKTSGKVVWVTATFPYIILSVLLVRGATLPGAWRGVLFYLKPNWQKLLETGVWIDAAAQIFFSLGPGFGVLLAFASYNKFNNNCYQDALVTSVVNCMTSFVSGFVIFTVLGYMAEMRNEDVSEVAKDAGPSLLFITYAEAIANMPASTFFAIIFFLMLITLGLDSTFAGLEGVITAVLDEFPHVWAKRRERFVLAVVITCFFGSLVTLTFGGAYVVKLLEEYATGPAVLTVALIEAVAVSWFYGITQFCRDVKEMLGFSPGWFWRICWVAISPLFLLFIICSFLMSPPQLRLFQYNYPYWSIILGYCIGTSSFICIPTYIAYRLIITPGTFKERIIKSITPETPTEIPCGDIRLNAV

SMILES: CNCCC(c1ccccc1)c1cccc2ccccc12 (centres undefined)
Ki [1]: 2.4 nM

SMILES: CNCCCN(c1ccccc1)c1ccc(OCCN2CCCC2)cc1
Kb (Histamine H3 receptor [2]): 0.79 nM
Ki [1]: > 70 nM
Ki (Histamine H3 receptor [3]): 0.72 nM
Ki (Transporter): 110 nM
Ki (Histamine H3 receptor [4]): 0.28 nM

SMILES: CNCCC(c1ccccc1)c1ccc(O)c2ccc(OCCN3CCCC3)cc12 (centres undefined)
Kb (Histamine H3 receptor [2]): 8.3 nM
Cmax [5]: 0.21 µg/mL
Tmax [6]: 0.25 h
bioavailability [7]: 43%
Vd [8]: 8.2 L/kg
clearance [9]: 0.46 L/h/kg
half-life [10]: 12 h
fraction unbound [11]: 0.33
fraction unbound [12]: 0.33
Activity (Rattus norvegicus [13]): 70%
Activity (Rattus norvegicus [14]): 93%
ED50 (Rattus norvegicus [15]): 1.2 mg/kg
concentration at 0.75 h [16]: 0.129 µg/mL
concentration at 0.75 h [17]: 0.382 µg/mL
concentration at 0.75 h [18]: 1.24 µg/mL
Activity (Rattus norvegicus [19]): 74%
Activity (Rattus norvegicus [20]): 89%
Activity (Rattus norvegicus [21]): 97%
Activity (Rattus norvegicus [22]): 88%
Activity (Rattus norvegicus [23]): 96%
Activity (Rattus norvegicus [24]): 99%
Ki [1]: 7 nM
ED50 (Rattus norvegicus [25]): 0.15 mg/L (≈ 0.371 µM)
Ki (Histamine H3 receptor [3]): 37 nM
Ki (Transporter): 14 nM
Ki (Histamine H3 receptor [4]): 7.4 nM

SMILES: CNCCN(c1ccccc1)c1ccc(OCCN2CCCC2)cc1
Kb (Histamine H3 receptor [2]): 2.4 nM
Ki [1]: > 70 nM
Ki (Histamine H3 receptor [3]): 5.4 nM
Ki (Transporter): 89 nM
Ki (Histamine H3 receptor [4]): 1.6 nM

SMILES: CNCCC(Oc1cccc2cc(OCCN3CCCC3)ccc12)c1ccccc1 (centres undefined)
Kb (Histamine H3 receptor [2]): 67 nM
Ki (Histamine H3 receptor [3]): 48 nM
Ki (Transporter): 230 nM

The next lines start with the values.

Kb (Histamine H3 receptor [2]): 2.1 nM
Ki [1]: > 70 nM
Ki (Histamine H3 receptor [3]): 2.9 nM
Ki (Transporter): 14 nM
Ki (Histamine H3 receptor [4]): 0.89 nM
SMILES: CNCCCC(c1ccccc1)c1ccc(OCCN2CCCC2)cc1 (centres undefined)

Ki [1]: > 70 nM
Ki (Histamine H3 receptor [3]): 5.2 nM
Ki (Transporter): 4.3 nM
Ki (Histamine H3 receptor [4]): 1.4 nM
SMILES: CNCCC(c1ccccc1)c1ccc(OCCN2CCCC2)cc1 (centres undefined)
